These results are taken from EPA's ToxValDB 9.5.

Data set [1] relates to Mus musculus. The note with it: uterotrophic, Active.
In data set [2] the test system is Oryctolagus sp. The note with it: for LD50: acute; for NOAEL: duration: 24 days, gavage.
The test system of data set [3] is Mus musculus. To be noted: for LD50: acute.
The test system of data set [4] is Rattus norvegicus. The note with it: for LD50 / LC50: acute.
The subject of data set [5] is Rattus norvegicus. To be noted: subchronic, oral.
The test system of data set [6] is Rattus norvegicus. To be noted: oral, M/F.
Data set [7] has as its system Rattus norvegicus. The note with it: uterotrophic; duration: 3 days; oral; Active.
The mark [8] stands for this setting: duration: 3 days, injection, subcutaneous.
The mark [9] stands for this setting: reproduction developmental, mortality and kidney lesions.
Where [10] appears, read: subchronic, drinking water, impaired renal function and increased liver and kidney weight.
[11] abbreviates: subchronic, duration: 12 weeks, Inhalation, Long-Evans.

“And” between values parts separate entries of the source, which are not always exact repeats. Identical values can stand only once. Where only a bound is given, the exact number is not on record here.

In turn, `CC(C)(c1cc(Cl)c(O)c(Cl)c1)c1cc(Cl)c(O)c(Cl)c1` [2,2',6,6'-Tetrachlorobisphenol A] displayed an LEL in data set [1] (duration: 3 days, injection, intraperitoneal) of 20 mg/kg-day.

For orientation: LD50 means the dose expected to kill half of the subjects tested. High values mean a less toxic substance, low ones a more toxic substance. As a reminder, the NOAEL is the highest dose or exposure tested at which no adverse effect was seen. For `c1ccc2sc(SSc3nc4ccccc4s3)nc2c1` [2,2'-Dithiobisbenzothiazole], the median lethal dose (LD50) is 6200 mg/kg in data set [2] (oral); 2250 mg/kg in data set [3] (injection, Intraperitoneal); 180 mg/kg in data set [3] (injection, intravenous); 3000 mg/kg and 2600 mg/kg in data set [4] (injection, Intraperitoneal). Besides, the no-observed-adverse-effect level (NOAEL) in data set [3] (developmental, oral, N strain) is 10 mg/kg-day; in data set [4] (reproduction developmental, oral, Wistar, hybrid, generation: F1), 10 mg/kg-day; in data set [4] (short-term, duration: 22 days, oral, diet, F, Wistar), 127 mg/kg-day. For the same compound, the “NOAEL (% diet)” value amounted to 1 in data set [4] (developmental, duration: 22 days, oral, diet, Wistar) and 0.2 in data set [4] (reproduction developmental, duration: 22 days, oral, diet, F, Wistar).

In data set [1] (setting [8]), `Oc1ccc(C(c2ccc(O)cc2)C(Cl)(Cl)Cl)cc1` [2,2-Bis(4-hydroxyphenyl)-1,1,1-trichloroethane] came in with an LEL of 100 mg/kg-day.

On to `Cc1cc(C)c(O)c(C)c1` [2,4,6-Trimethylphenol], for which, in data set [5] (gavage, M, Sprague-Dawley, Clinical Observation: Salivation + Histopathology: Stomach/forestomach- Squamous cell metaplasia Stomach/forestomach- Edema Stomach/…), the NOEL turned out to be 10 mg/kg-day. Besides, the LD50 in data set [2] (dermal, New Zealand) is above 2000 mg/kg; in data set [4] (oral, gavage) it was above 2000 mg/kg. Besides, the no observed adverse effect level (NOAEL) in data set [4] (reproduction developmental, duration: 4 weeks, oral, gavage, F, Sprague-Dawley) was at least 200 mg/kg-day; in data set [4] (reproduction developmental, duration: 4 weeks, oral, gavage, Sprague-Dawley, generation: F0), at least 200 mg/kg-day; in data set [4] (reproduction developmental, duration: 4 weeks, oral, gavage, Sprague-Dawley, generation: F1) it was at least 200 mg/kg-day.

As a reminder, the LOAEL is the lowest dose or exposure tested at which an adverse effect was seen. Take `Cc1cccc([N+](=O)[O-])c1` [3-Nitrotoluene]: the NOEL in data set [5] (diet, F, Fischer 344, Body Weight Changes: decrease + Food Consumption: decrease + Hematology: Hct decrease, Hgb decrease, RBC decrease, MCV increase, MCH …) is below 48 mg/kg-day; in data set [5] (diet, M/F, Fischer 344, Body Weight Changes: decrease + Food Consumption: decrease + Hematology: Hct decrease, Hgb decrease, RBC decrease, MCV increase, MCH …), below 60 mg/kg-day. Further, the LD50 in data set [2] (dermal, New Zealand) was above 20000 mg/kg; in data set [3] (oral) it was 1230 mg/kg; in data set [4] (dermal), above 1160 mg/kg; in data set [4] (oral) it was 2120 mg/kg and 1070 mg/kg and 1780 mg/kg; in data set [4] (oral, Sprague-Dawley), 1070 mg/kg; in data set [4] (oral, gavage, Wistar) it was 2200 mg/kg and 2000 mg/kg. The LOAEL in data set [3] (subchronic, duration: 13 weeks, oral, diet, B6C3F1) was ≥ 123 mg/kg-day and ≤ 133 mg/kg-day; in data set [4] (subchronic, duration: 13 weeks, oral, diet, F, Fischer 344) it was 60 mg/kg-day; in data set [4] (subchronic, duration: 13 weeks, oral, diet, M, Fischer 344) it was 60 mg/kg-day. The LC50 was above 2.42 mg/L in data set [4] (inhalation) and above 881 mg/m3 in data set [4] (inhalation, Sprague-Dawley).

With `CCCCCCCCc1ccc(Nc2ccc(CCCCCCCC)cc2)cc1` [4,4'-Dioctyldiphenylamine], in data set [5] (gavage, M, Sprague-Dawley, Hematology: PT increase(tendency) APTT increase), the NOEL was 25 mg/kg-day. The LD50 in data set [2] (dermal, occlusive, New Zealand) was above 7940 mg/kg; in data set [4] (oral, gavage, Sprague-Dawley) it was above 7940 mg/kg.

In data set [1] (setting [8]), `O=C(O)c1ccc(O)cc1` [4-Hydroxybenzoic acid] came in with an LEL of 5 mg/kg-day.

Regarding `O=C([O-])c1cc(Oc2ccc(C(F)(F)F)cc2Cl)ccc1[N+](=O)[O-].[Na+]` [Acifluorfen sodium], the LEL in data set [6] (setting [9]) is 25 mg/kg-day. Moreover, in data set [6] (setting [9]), the NOEL came out at 1.25 mg/kg-day. The 50% lethal dose (LD50) in data set [2] (dermal, occlusive, Albino) was 1460 mg/kg; in data set [4] (oral, CF Nelson), 122 mg/kg. Also, the no-observed-adverse-effect level (NOAEL) in data set [2] (developmental, oral, New Zealand) came to 12 mg/kg-day; in data set [2] (reproduction developmental, oral, F, New Zealand) it was 12 mg/kg-day; in data set [4] (developmental, duration: 14 days, oral, gavage, Crl:COBS-CD-(SD)BR), 20 mg/kg-day. This compound also registered an LC50 in data set [4] (Inhalation, albino King (Kng:(SD)BR)) above 1.38 mg/L.

Turning to `C=CCO` [Allyl alcohol], the LOAEL turned out to be 6.9 mg/kg-day in data set [6] (setting [10]) and 95 mg/m3 in data set [4] (setting [11]). The NOEL was 4.8 mg/kg-day in data set [6] (setting [10]); 1.5 mg/kg-day in data set [5] (gavage, F, Fischer 344, Hematology: Plt increase + Blood Chemistry: BUN increase25 Bile acid increase + Absolute Organ Weight: Liver increase + Relative Organ …); 3 mg/kg-day in data set [5] (gavage, M, Fischer 344, Hematology: Plt increase + Blood Chemistry: BUN increase25 Bile acid increase + Absolute Organ Weight: Liver increase + Relative Organ …). The median lethal dose (LD50) in data set [2] (dermal) was 89 mg/kg; in data set [3] (oral, gavage, Swiss-Webster), 96 mg/kg; in data set [4] (oral, Sherman Wistar), 64 mg/kg; in data set [4] (oral, gavage, Long-Evans), ≥ 99 mg/kg and ≤ 105 mg/kg; in data set [4] (oral, gavage, Osborne-Mendel), 70 mg/kg. The LC50 in data set [4] (inhalation, Long-Evans) is ≥ 297 mg/m3 and ≤ 333 mg/m3; in data set [4] (inhalation, Sherman Wistar), 594 mg/m3. For the same compound, the no-observed-adverse-effect level (NOAEL) in data set [4] (chronic, duration: 15 weeks, oral, drinking water, Wistar) was 11.2 mg/kg-day; in data set [4] (setting [11]), 47.5 mg/m3.

As to `O=C(OCc1ccccc1)c1ccc(O)cc1` [Benzyl 4-hydroxybenzoate], the LEL in data set [1] (duration: 3 days, dermal) was determined as 100 mg/day; in data set [7], 0.16 mg/kg-day.

In the case of `COc1ccc(-c2coc3cc(O)cc(O)c3c2=O)cc1` [Biochanin A], the LEL in data set [1] (duration: 4 days, oral, diet) stood at 2.5 mg/day.

As for `C=CC(C)CCC=C(C)C` (configuration not stated) [Dihydromyrcene], the 50% lethal dose (LD50) was above 5000 mg/kg in data set [2] (dermal, New Zealand); above 5000 mg/kg in data set [4] (oral, Wistar); above 5000 mg/kg in data set [4] (oral, gavage, Wistar).
